Data on 7 compounds can be found in paper PMC5515971, “Utility of spherical human liver microtissues for prediction of clinical drug-induced liver injury” (Archives of Toxicology, 2017).

Usually IC50 stands for the concentration needed to halve the response being measured. Broadly, the Cmax is the maximum level reached in the sampled fluid or tissue.

The test system of one data set is BSEP transporter. On the set-up: method as in Kenna et al. [2015]. The following applies: ref Kenna et al. [2015]; cited from earlier work.
The conditions of data set [1]: ref Chen et al 2016 / Chen et al 2011; cited from earlier work.
Data set [2] is described as follows: Clinical DILI severity categorization and DILI pattern. The note with it: P = DILI severity categories 1, 2 and 3; N = categories 4 and 5.
Data set [3] concerns primary human hepatocytes (PHH). In words: Cytotoxicity (cellular ATP, CellTiter-Glo) in 2D plated primary human hepatocytes, 48 h treatment.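 On all read-outs here: 384-well plates, luminescence read-out, normalized to vehicle wells with 1% DMSO.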 The class given is cell-based. The note with it: for IC50: Hepatocyte, 2D primary human hepatocytes (lot IZT), 48 h treatment, total cellular ATP content, read-out: Geomean IC50.
In data set [4] the test system is 3D human liver microtissues (hLiMT). In words: Cytotoxicity (cellular ATP, CellTiter-Glo 2.0) in 3D human liver microtissues, 14 day repeat-dose treatment. The note with it: for IC50: Homo sapiens, 336 h.
For data set [5] the following is noted: cited from earlier work.
The conditions of data set [6]: cited from earlier work; for P/N (DILI positive / DILI negative): P = DILI severity categories 1, 2 and 3, N = categories 4 and 5; for DILI category: clinical, from literature and product labels.
For data set [7], the system named is 3D human liver microtissues (hLiMT).
Data set [8] shares this test system. Kind of data set: alpha-GST release into hLiMT supernatant (ELISA). The class given is cell-based. The following applies: 336 h, 14 days, release into medium, read-out: IC50 (α-GST assay). In general terms: In an ELISA, binding on a coated surface is turned into a signal by an enzyme label.
Protocol: Supernatants from single hLiMT (in triplicates) were analysed for α-GST content using EKF’s α-GST ELISA assay. Briefly, 50 μL of the thawed cell-culture supernatants from single microtissues was transferred into a new v-bottom plate and diluted with 60 μl sample diluent buffer. From this dilution, 100 μL were transferred to the microassay strips. The ELISA was otherwise performed according to the manufacturer’s instructions.
For data set [9] the test system is unchanged. Kind of data set: Cytotoxicity (cellular ATP) in 3D human liver microtissues, 5-6 days treatment.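 Further: Hanging-drop spheroids, seven-point dilution series, re-dosed on day 3, CellTiter-Glo 2.0 luminescence, normalized to 0.5 or 1% DMSO vehicle controls on the same plate.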 The class given is cell-based. The following applies: Homo sapiens; hLiMT, 5/6 days, ATP content; read-out: IC50 SHORT.
Where [10] appears, read: Hepatocyte, read-out: Geomean IC50 [µM].
Setting [11] is: human Cmax total, used for IC50/Cmax.
[12] abbreviates: human total plasma Cmax, ref literature values.
Where [13] appears, read: Table 1, ref Garside et al. (2014).
Where [14] appears, read: clinical DILI severity category, 1-5.
Setting [15] is: table S-4, ref Garside et al. 2014.
[16] abbreviates: table S-5, ref Garside et al. 2014.

“Also recorded” adds a separate entry of the source. Like-named read-outs stand apart in the source and are kept apart here.

In the case of `COC(c1ccccc1)(c1ccccc1)[C@H](Oc1nc(C)cc(C)n1)C(=O)O` [Ambrisentan], in the data set on BSEP transporter, the “fold lower potency to inhibit BSEP transporter function than bosentan” value is 10 fold. Besides, the “fold lower potency to inhibit BSEP transporter function than sitax(s)entan” value in the data set on BSEP transporter is recorded as 30 fold. For the same compound, the “FDA DILI Classification DILI severity score” value in [1] is recorded as 7. Besides, in [1], the “LTKB DILI classification” value was “Ambiguous DILI concern”. Moreover, the “P/N (DILI positive / DILI negative)” value in data set [2] and in [6] was “N” each time. The IC50 in [3] and in data set [4] (setting [10]) was greater than 100 µM each time. Also, in [4] (hLiMT 14 days, in words), the cytotoxicity result is “did not detect cytotoxicity; also recorded: not cytotoxic”. For the same compound, the Cmax in [5] (setting [11]) and in data set [5] (setting [12]) was 790 nM throughout. Moreover, the DILI severity category in data set [6] (setting [13]) is on record as 5: No DILI (N = 25); in [6] (setting [14]), 5. No DILI. Further, the DILI category in data set [6] (ref Garside et al. 2014) is reported as 5. No DILI.

Turning to `Nc1nc(F)nc2c1ncn2[C@@H]1O[C@H](CO)[C@@H](O)[C@@H]1O` [Fludarabine], the “FDA DILI Classification DILI severity score” value in data set [1] was 0. Also, the “LTKB DILI classification” value in data set [1] was “no DILI concern”. In addition, the “P/N (DILI positive / DILI negative)” value in data set [2] and in [6] was “N” in each case. The figures for the IC50 in data set [3] and in [4] (setting [10]) were greater than 50 µM and 6.8 µM, respectively. Moreover, in data set [7], the “Geomean IC50/cmax” value is listed as 39.9. Besides, the Cmax in [5] (setting [11]) and in data set [5] (setting [12]) was 170 nM in each case. Besides, the DILI severity category in data set [6] (setting [13]) is recorded as 4: Enzyme elevations in clinic (N = 16); in data set [6] (setting [14]), 4. Enzyme Elevations in Clinic. Moreover, the DILI category in [6] (ref Garside et al. 2014) was 4. Enzyme Elevations in Clinic.

Turning to `CCc1nn(CCCN2CCN(c3cccc(Cl)c3)CC2)c(=O)n1CCOc1ccccc1` [Nefazodone], the IC50 in data set [8] was 48.5 µM; in data set [3] it was 36.2 µM; in [9], 25.3 µM; in data set [4] (read-out: IC50 (ATP-assay)), roughly 44.9 µM; in data set [4] (read-out: IC50 LONG), 29.4 µM; in [4] (setting [10]), roughly 29.4 µM. Moreover, in [1], the “FDA DILI Classification DILI severity score” value is given as 8. For the same compound, the “LTKB DILI classification” value in data set [1] is “most DILI concern”. Further, the “classification at 50× MOS threshold” value in data set [3] (PHH 48 h) and in data set [4] (hLiMT 14 days) was “hepatotoxic” each time. Moreover, the values for the Cmax in [5] (setting [11]) and in [5] (setting [12]) were 4300 nM and 4260 nM, respectively. The DILI severity category in data set [6] (setting [13]) is reported as 1: Severe clinical DILI (N = 23); in data set [6] (setting [14]), 1. Severe Clinical DILI; in [6] (setting [15]), 1; in data set [6] (setting [16]), 1. Severe Clinical DILI. The DILI category in [6] (ref Garside et al. 2014) is reported as 1. Severe Clinical DILI.

Take `CC(COc1ccccc1)N(CCCl)Cc1ccccc1` (stereo not shown) [Phenoxybenzamine]: the figures for the IC50 in [3] and in [4] (setting [10]) were greater than 50 µM and greater than 25 µM, respectively. For the same compound, in data set [7], the “Geomean IC50/cmax” value is greater than 126.9. For the same compound, the Cmax in [5] (setting [12]) was 200 nM.

On to `Nc1c2c(nc3ccccc13)CCCC2` [Tacrine], for which the IC50 in data set [3] is 106 µM; in [4] (setting [10]), roughly 69.6 µM. The “Geomean IC50/cmax” value in data set [7] was 696.2.

As to `Cc1ccc(C(=O)c2cc(O)c(O)c([N+](=O)[O-])c2)cc1` [Tolcapone], the IC50 was 62.4 µM in data set [8]; 158 µM in data set [3]; 30.1 µM in [9]; 19.3 µM in data set [4] (read-out: IC50 (ATP-assay)); 15.5 µM in data set [4] (read-out: IC50 LONG); roughly 19 µM in data set [4] (setting [10]). Moreover, the “FDA DILI Classification DILI severity score” value in [1] was 8. In addition, the “LTKB DILI classification” value in data set [1] was “most DILI concern”. Besides, the Cmax in [5] (setting [11]) and in [5] (setting [12]) was 47600 nM each time. Also, the DILI severity category was 1: Severe clinical DILI (N = 23) in data set [6] (setting [13]), 1. Severe Clinical DILI in data set [6] (setting [14]), 1 in data set [6] (setting [15]) and 1. Severe Clinical DILI in data set [6] (setting [16]). In addition, the DILI category in [6] (ref Garside et al. 2014) was 1. Severe Clinical DILI.

In the case of `Cc1c(C)c2c(c(C)c1O)CCC(C)(COc1ccc(CC3SC(=O)NC3=O)cc1)O2` (stereo not shown) [Troglitazone], the IC50 in [8] was 14 µM; in data set [3], greater than 100 µM; in [9] it was 25.6 µM; in data set [4] (read-out: IC50 (ATP-assay)) it was 10.8 µM; in data set [4] (read-out: IC50 LONG), 14.6 µM; in data set [4] (setting [10]), roughly 14.6 µM. In addition, the “FDA DILI Classification DILI severity score” value in data set [1] was 8. Besides, the “LTKB DILI classification” value in data set [1] is listed as “most DILI concern”. Besides, the Cmax in data set [5] (setting [11]) is 6400 nM. The DILI severity category in data set [6] (setting [13]) is listed as 1: Severe clinical DILI (N = 23); in [6] (setting [14]) it was 1. Severe Clinical DILI; in [6] (setting [15]), 1; in [6] (setting [16]), 1. Severe Clinical DILI. The DILI category in data set [6] (ref Garside et al. 2014) is 1. Severe Clinical DILI.
